Data taken from patent US11951155B2, “Pea-derived peptide with muscle-building effect and preparation method thereof, and drug and use” (Zhongshi Duqing(Shandong) Biotech Co., Ltd, priority 2022, dated 2024).
Values joined by “and” are separate entries in the source; they are usually repeats but may differ in a detail not shown here. Identical values can stand only once. Ends that are not written are not given here.

Columns and labels:
C2C12 cells = experiment: C2C12 cell proliferation assay (CCK-8, OD at 450 nm); type: cell-based; conditions: for cell concentration compared with CN group: co-incubated 48 h, 0.4 μg/ml; for OD value, Average value / OD value, Repeated three groups: sample 0.4 μg/ml, OD 450 nm; for OD value, Repeated three groups: single replicates
Procedure: The C2C12 cells in a logarithmic growth phase were inoculated into a 96-well plate; the cells were divided into 4 groups, namely a blank control group (CN, without any peptide fractions), a pea-derived peptide S1 group, a pea-derived peptide S2 group, and a pea-derived peptide S3 group; each treatment group was set to duplicate 3 wells, with approximately 1,000 cells per well. Except for the blank control group, 0.4 μg/ml pea-derived peptide was added to the cells, and 10 μL of a CCK-8 solution was added separately at 0 h, 12 h, 24 h, 36 h, and 48 h, and mixed well; the cells were incubated in a CO2 incubator at 37° C. for 2 h, an OD value was measured using a microplate reader at 450 nm, and a cell proliferation curve was drawn.
The C2C12 cells in a logarithmic growth phase were inoculated into a 96-well plate; the cells were divided into 6 groups, namely a blank control group (CN, without any peptide fractions), and sample groups including a pea-derived peptide PP1 group (PP1), a pea-derived peptide PP2 group (PP2), a pea-derived peptide PP3 group (PP3), a pea-derived peptide PP4 group (PP4), and a pea-derived peptide PP5 group (PP5). Each treatment group was set to 3 duplicate wells, with approximately 1,000 cells per well. A sample having a concentration of 0.4 μg/ml was added to the cells of the sample groups, and 10 μL of a CCK-8 solution was added separately at 0 h, 12 h, 24 h, 36 h, and 48 h, and mixed well; the cells were incubated in a CO2 incubator at 37° C. for 2 h, an OD value was measured using a microplate reader at 450 nm, and a cell proliferation curve was drawn.

[1] = tested on: IGF-1R, cyclinD1, CDK6, p-AMPK in C2C12 cells; experiment: Western blot of growth and proliferation-related proteins in C2C12 cells; type: cell-based; conditions: skeletal muscle cells treated with one peptide alone
Source text: The C2C12 cells in a logarithmic growth phase were inoculated into a 6-well plate at 1×10^6; the cells were divided into 6 groups, namely a blank control group (CN), and sample groups including a pea-derived peptide PP1 group (PP1), a pea-derived peptide PP2 group (PP2), a pea-derived peptide PP3 group (PP3), a pea-derived peptide PP4 group (PP4), and a pea-derived peptide PP5 group (PP5). Each treatment group was set to duplicate 3 wells, with approximately 1,000,000 cells per well; a sample having a concentration of 0.4 μg/ml was added to the cells of the sample groups, and each treatment group was set to 3 duplicate wells. After co-incubating for 24 h, the cells in different treatment groups were collected, fully lysed, and a total protein was extracted, and a protein concentration was determined using a nucleic acid protein analyzer. The protein sample was mixed with a loading buffer thoroughly, denatured at 100° C. for 10 min, and subjected to SDS-PAGE gel electrophoresis. The program included: 80 V for 30 min; 100 V for 80 min. Membrane transfer was conducted, where the membrane transfer procedure was conducted at 100 V for 90 min. After transferring, the sample was placed in a 5% skimmed milk powder, and sealed in a shaker at room temperature for 1 h. GAPDH antibody (1:2000) and PCNA antibody, AMPK antibody, p-AMPK antibody, IGF-1 antibody (1:1000) were added separately, and allowed to stand at 4° C. overnight. A secondary antibody (1:20000) was added, and incubated at room temperature for 1 h. The membrane was washed 3 times with TBST, and a Pierce-enhanced luminescent agent was added, and exposure was conducted by an automatic exposure machine.

pepsin and trypsin = experiment: In vitro digestion test with pepsin and trypsin; type: in vitro ADME; conditions: 500 mg/L; pepsin 20 mg/g pH 2.0 37° C. 90 min, then trypsin 40 mg/g pH 7.5 37° C. 150 min; HPLC or LC-MS
Procedure: A pea-derived peptide aqueous solution and a pea-derived peptide PP2 aqueous solution with a mass concentration of 500 mg/L were prepared separately, pepsin (20 mg/g) was added, a pH value was adjusted to 2.0, and the two aqueous solutions were treated in a water bath at a constant temperature of 37° C. for 90 min. Following the water bath, the pH value was adjusted to 7.5, trypsin (40 mg/g) was added, and the two aqueous solutions were treated in the water bath at a constant temperature of 37° C. for 150 min. Following the water bath, the two solutions were placed in a 95° C. water bath for 5 min to inactivate the enzyme. The samples were freeze-dried and analyzed by HPLC to compare changes in the liquid chromatograms before and after digestion. Also provided were undigested pea-derived peptide and pea-derived peptide digested only by pepsin but not by trypsin.
Pea-derived peptide PP2 was digested in vitro according to the method of Example 4.

Question: For EGSLLLPH, which “cell concentration compared with CN group” value (C2C12 cells) is on record?
Answer: increases significantly

Question: And the “OD value, Average value” (C2C12 cells; treatment time 0 h)?
Answer: 0.35

Question: What about the “OD value, Repeated three groups” value (C2C12 cells; treatment time 0 h) of the same substance?
Answer: 0.28 and 0.35 and 0.41

Question: And the “OD value, Average value” (C2C12 cells; treatment time 12 h)?
Answer: 0.53

Question: And the “OD value, Repeated three groups” value (C2C12 cells; treatment time 12 h)?
Answer: 0.52 and 0.66 and 0.42

Question: And the “OD value, Average value” (C2C12 cells; treatment time 24 h)?
Answer: 1.26

Question: What about the “OD value, Repeated three groups” value (C2C12 cells; treatment time 24 h) of the same substance?
Answer: 1.24 and 1.07 and 1.48

Question: What about the “OD value, Average value” (C2C12 cells; treatment time 36 h) of the same substance?
Answer: 1.73

Question: What about the “OD value, Repeated three groups” value (C2C12 cells; treatment time 36 h) of the same substance?
Answer: 1.77 and 1.62 and 1.81

Question: What about the “OD value, Average value” (C2C12 cells; treatment time 48 h) of the same substance?
Answer: 1.95

Question: And the “OD value, Repeated three groups” value (C2C12 cells; treatment time 48 h)?
Answer: 1.96 and 1.78 and 2.10

Question: And the “expression of IGF-1R, cyclinD1, CDK6 and p-AMPK” value [1]?
Answer: significantly increase expression

Question: How did the “stability after digestion by pepsin and trypsin” value (pepsin and trypsin) turn out when LDLPVL [PP2, Leu-Asp-Leu-Pro-Val-Leu] was run?
Answer: not digested and degraded by the pepsin and trypsin

Question: What does the source list for LLYVIR?
Answer: cell concentration compared with CN group (C2C12 cells): increases significantly; OD value, Average value (C2C12 cells; treatment time 0 h): 0.38; OD value, Repeated three groups (C2C12 cells; treatment time 0 h): 0.36 and 0.52 and 0.27; OD value, Average value (C2C12 cells; treatment time 12 h): 0.50; OD value, Repeated three groups (C2C12 cells; treatment time 12 h): 0.42 and 0.51 and 0.56; OD value, Average value (C2C12 cells; treatment time 24 h): 1.34; OD value, Repeated three groups (C2C12 cells; treatment time 24 h): 1.08 and 1.62 and 1.32; OD value, Average value (C2C12 cells; treatment time 36 h): 1.84; OD value, Repeated three groups (C2C12 cells; treatment time 36 h): 1.95 and 1.83 and 1.74; OD value, Average value (C2C12 cells; treatment time 48 h): 2.11; OD value, Repeated three groups (C2C12 cells; treatment time 48 h): 2.07 and 2.32 and 1.95; expression of IGF-1R, cyclinD1, CDK6 and p-AMPK [1]: significantly increase expression

Question: Which results are given for NTNYEEIEKVL?
Answer: cell concentration compared with CN group (C2C12 cells): increases significantly; OD value, Average value (C2C12 cells; treatment time 0 h): 0.36; OD value, Repeated three groups (C2C12 cells; treatment time 0 h): 0.44 and 0.27 and 0.36; OD value, Average value (C2C12 cells; treatment time 12 h): 0.557; OD value, Repeated three groups (C2C12 cells; treatment time 12 h): 0.43 and 0.53 and 0.71; OD value, Average value (C2C12 cells; treatment time 24 h): 1.42; OD value, Repeated three groups (C2C12 cells; treatment time 24 h): 1.41 and 1.66 and 1.19; OD value, Average value (C2C12 cells; treatment time 36 h): 1.88; OD value, Repeated three groups (C2C12 cells; treatment time 36 h): 1.72 and 2.06 and 1.86; OD value, Average value (C2C12 cells; treatment time 48 h): 2.12; OD value, Repeated three groups (C2C12 cells; treatment time 48 h): 1.98 and 2.32 and 2.05; expression of IGF-1R, cyclinD1, CDK6 and p-AMPK [1]: significantly increase expression

Question: With TNYEEIEKVLL as the substance, how does the “cell concentration compared with CN group” value (C2C12 cells) read?
Answer: increases significantly

Question: And the “OD value, Average value” (C2C12 cells; treatment time 0 h)?
Answer: 0.33

Question: And the “OD value, Repeated three groups” value (C2C12 cells; treatment time 0 h)?
Answer: 0.41 and 0.37 and 0.22

Question: And the “OD value, Average value” (C2C12 cells; treatment time 12 h)?
Answer: 0.56

Question: And the “OD value, Repeated three groups” value (C2C12 cells; treatment time 12 h)?
Answer: 0.54 and 0.45 and 0.68

Question: What about the “OD value, Average value” (C2C12 cells; treatment time 24 h) of the same substance?
Answer: 1.33

Question: And the “OD value, Repeated three groups” value (C2C12 cells; treatment time 24 h)?
Answer: 1.31 and 1.06 and 1.62

Question: What about the “OD value, Average value” (C2C12 cells; treatment time 36 h) of the same substance?
Answer: 1.86

Question: And the “OD value, Repeated three groups” value (C2C12 cells; treatment time 36 h)?
Answer: 2.03 and 1.67 and 1.89

Question: And the “OD value, Average value” (C2C12 cells; treatment time 48 h)?
Answer: 2.09

Question: What about the “OD value, Repeated three groups” value (C2C12 cells; treatment time 48 h) of the same substance?
Answer: 1.87 and 2.11 and 2.28

Question: And the “expression of IGF-1R, cyclinD1, CDK6 and p-AMPK” value [1]?
Answer: significantly increase expression
